PMC8152350, “High cytotoxicity of betulin towards fish and murine fibroblasts: Is betulin safe for nonneoplastic cells?” (BMC Veterinary Research, 2021)
Values joined by “and” are separate entries in the source; they are usually repeats but may differ in a detail not shown here. Equal values may be shown once.

Key:
NIH/3T3 cells = experiment: MTT assay (mitochondrial activity), murine fibroblasts
Method: NIH/3T3 (ATCC CRL-1658) mouse embryonic fibroblasts were grown in Dulbecco’s modified Eagle’s medium (DMEM) supplemented with 2 mM glutamine, 10 % foetal bovine serum and a 1 % antibiotic-antimycotic solution at 37 °C in a humidified atmosphere with 5 % CO2.
NIH/3T3 and BF-2 cells were seeded in 96-well plates at a density of 1 × 10^4 or 2 × 10^4 cells per well, respectively. After 24 h of incubation at an appropriate temperature, cells were exposed to betulin at the concentrations mentioned above for 24, 48 and 72 h. Control (untreated) cells served as the negative control and a reference point. Triton X-100 treated cells served as the positive internal control in MTT, NRU and LDH assays. Due to the specific character of SRB assay, there was no positive control in this test. After 24, 48 and 72 h of treatment, the four different cytotoxicity assays were performed. All experiments were repeated three times.
The MTT assay is used to estimate mitochondrial damage, since it determines the activity of mitochondrial enzymes. These enzymes reduce the water-soluble tetrazolium dye MTT to insoluble purple formazan, which accumulates inside viable cells.
The MTT assay was conducted using the protocol described by Mosmann, with some modifications described in our previous article.
The MTT assay was used to determine the cytotoxicity of both betulin and the vehicle (DMSO).
All experiments were repeated three times. […] Statistical analyses were performed using GraphPad Prism software (GraphPad Software, USA). Data were subjected to one-way analysis of variance (ANOVA). Dunnett’s posttest was used to determine differences between control and betulin-exposed cells at the same time points. Differences between the two cell lines at the same time points were determined using Student’s t-test. The 50 % cytotoxic concentrations (CC50, defined as the concentration of the compound that reduced cell viability by 50 %) were calculated using the Quest Graph™ ED50 Calculator (AAT Bioquest, Inc.).

[1] = test system: murine Balb/3T3 fibroblasts; parameters: method as in PMID 16112835; settings: Balb/3T3, MTT assay; cited from earlier work
BF-2 cells = experiment: MTT assay (mitochondrial activity), fish fibroblasts; format: cell-based, bluegill
Method: BF-2 (ATCC CCL-91) bluegill caudal trunk fibroblasts were grown in minimum essential medium (Eagle, EBSS) supplemented with 1 % nonessential amino acids (NEAAs), 10 % foetal bovine serum and 1 % antibiotic-antimycotic solution at 23 °C in a humidified atmosphere with 5 % CO2.
All experiments were repeated three times.

[2] = test system: GSF3.2 goat skin fibroblasts; parameters: method as in earlier work; settings: GSF3.2, trypan blue; cited from earlier work

C[S+](C)[O-] [DMSO, Dimethyl sulfoxide]
CC50 DMSO (MTT) 24 h (NIH/3T3 cells; NIH/3T3, 24 h, mean ± SD, n = 3): 2.989 ± 0.159%
CC50 DMSO (MTT) 48 h (NIH/3T3 cells; NIH/3T3, 48 h, mean ± SD, n = 3): 2.374 ± 0.395%
CC50 DMSO (MTT) 72 h (NIH/3T3 cells; NIH/3T3, 72 h, mean ± SD, n = 3): 1.635% and 1.635 ± 0.423%
maximum tolerable DMSO concentration (NIH/3T3 cells; NIH/3T3, concentration at which viability exceeded 90 % throughout the experiment): 0.625%
DMSO concentration with absence of any measurable activity of mitochondria (NIH/3T3 cells; murine fibroblasts, MTT): 10%
IC50 of DMSO [1]: 2.75%
CC50 DMSO (MTT) 24 h (BF-2 cells; BF-2, 24 h, mean ± SD, n = 3): 5.031 ± 0.423%
CC50 DMSO (MTT) 48 h (BF-2 cells; BF-2, 48 h, mean ± SD, n = 3): 4.434 ± 0.717%
CC50 DMSO (MTT) 72 h (BF-2 cells; BF-2, 72 h, mean ± SD, n = 3): 4.794% and 4.794 ± 0.337%
maximum tolerable DMSO concentration (BF-2 cells; BF-2, concentration at which viability exceeded 90 % throughout the experiment): 1.25%
DMSO concentration with absence of any measurable activity of mitochondria (BF-2 cells; fish fibroblasts, MTT): 20%
DMSO concentrations giving significant increase in the number of live cells [2]: less than 0.1%
